Test results from ChEMBL document CHEMBL5291721, “A preclinical secondary pharmacology resource illuminates target-adverse drug reaction associations of marketed drugs” (Nat Commun, 2023).

What was measured:
Androgen receptor [1] = target: T1, Androgen receptor (Rattus norvegicus, UniProt P15207); type: functional
T1 sequence (P15207 whole entry): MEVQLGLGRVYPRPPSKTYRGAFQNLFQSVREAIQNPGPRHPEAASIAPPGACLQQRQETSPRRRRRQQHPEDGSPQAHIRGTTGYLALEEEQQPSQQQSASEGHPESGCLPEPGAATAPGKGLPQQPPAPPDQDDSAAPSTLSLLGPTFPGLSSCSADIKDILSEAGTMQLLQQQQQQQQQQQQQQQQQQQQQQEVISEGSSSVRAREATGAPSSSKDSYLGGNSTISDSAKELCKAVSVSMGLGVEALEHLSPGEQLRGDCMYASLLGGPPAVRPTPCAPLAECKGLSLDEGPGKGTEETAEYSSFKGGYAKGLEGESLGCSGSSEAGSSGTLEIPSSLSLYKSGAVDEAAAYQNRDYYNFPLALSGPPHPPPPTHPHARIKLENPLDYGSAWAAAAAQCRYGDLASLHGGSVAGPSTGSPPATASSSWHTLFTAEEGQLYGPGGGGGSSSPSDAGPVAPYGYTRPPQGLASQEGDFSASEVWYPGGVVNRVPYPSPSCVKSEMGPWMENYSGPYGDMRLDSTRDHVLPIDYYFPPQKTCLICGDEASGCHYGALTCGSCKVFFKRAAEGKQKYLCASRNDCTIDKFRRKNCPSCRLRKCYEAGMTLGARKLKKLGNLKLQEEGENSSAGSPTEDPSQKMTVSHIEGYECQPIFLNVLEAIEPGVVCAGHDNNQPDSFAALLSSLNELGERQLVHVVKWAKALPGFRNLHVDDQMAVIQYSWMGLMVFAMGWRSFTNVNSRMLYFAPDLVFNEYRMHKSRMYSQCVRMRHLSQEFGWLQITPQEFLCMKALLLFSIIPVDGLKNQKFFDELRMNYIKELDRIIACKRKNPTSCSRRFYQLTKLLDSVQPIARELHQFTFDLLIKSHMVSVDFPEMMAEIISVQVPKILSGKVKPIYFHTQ

Androgen receptor [2] = target: T1, Androgen receptor
[3] = target: T2, Muscarinic acetylcholine receptor M4 (Homo sapiens, UniProt P08173)
T2 sequence (P08173 whole entry): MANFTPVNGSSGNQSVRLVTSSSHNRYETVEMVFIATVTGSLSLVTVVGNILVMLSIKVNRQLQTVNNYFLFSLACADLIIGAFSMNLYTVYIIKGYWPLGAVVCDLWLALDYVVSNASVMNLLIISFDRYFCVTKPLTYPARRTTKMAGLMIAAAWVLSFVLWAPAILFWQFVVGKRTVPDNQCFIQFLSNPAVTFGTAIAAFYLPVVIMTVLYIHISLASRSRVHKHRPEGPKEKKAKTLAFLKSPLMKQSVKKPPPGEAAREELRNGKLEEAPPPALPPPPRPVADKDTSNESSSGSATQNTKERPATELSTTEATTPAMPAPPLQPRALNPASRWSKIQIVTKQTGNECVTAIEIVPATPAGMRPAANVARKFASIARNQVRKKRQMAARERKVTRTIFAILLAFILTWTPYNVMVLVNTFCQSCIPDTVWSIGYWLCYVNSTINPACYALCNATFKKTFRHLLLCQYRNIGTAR

[4] = target: T3, Muscarinic acetylcholine receptor M5 (Homo sapiens, UniProt P08912)
T3 sequence (P08912 whole entry): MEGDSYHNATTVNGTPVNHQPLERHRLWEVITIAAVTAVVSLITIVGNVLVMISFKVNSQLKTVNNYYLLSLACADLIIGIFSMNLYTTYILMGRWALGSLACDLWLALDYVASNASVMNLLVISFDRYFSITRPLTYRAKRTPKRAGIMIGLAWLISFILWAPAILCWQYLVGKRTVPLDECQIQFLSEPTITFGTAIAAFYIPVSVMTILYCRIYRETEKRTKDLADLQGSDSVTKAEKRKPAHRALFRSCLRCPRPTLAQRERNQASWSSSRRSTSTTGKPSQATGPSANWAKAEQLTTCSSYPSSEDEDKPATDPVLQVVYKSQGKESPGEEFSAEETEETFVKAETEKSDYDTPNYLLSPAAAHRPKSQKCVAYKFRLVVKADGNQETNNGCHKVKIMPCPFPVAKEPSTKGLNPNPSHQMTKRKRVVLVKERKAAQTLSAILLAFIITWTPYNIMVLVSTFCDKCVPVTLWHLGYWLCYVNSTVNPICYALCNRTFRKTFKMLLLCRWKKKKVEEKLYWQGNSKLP

Cannabinoid receptor 1 = Cannabinoid receptor 1 (Homo sapiens, UniProt P21554); type: functional
[5] = target: 5-hydroxytryptamine receptor 7 (Homo sapiens, UniProt P34969)
Substance-K receptor = target: T4, Substance-K receptor (Homo sapiens, UniProt P21452)
T4 sequence (P21452 whole entry): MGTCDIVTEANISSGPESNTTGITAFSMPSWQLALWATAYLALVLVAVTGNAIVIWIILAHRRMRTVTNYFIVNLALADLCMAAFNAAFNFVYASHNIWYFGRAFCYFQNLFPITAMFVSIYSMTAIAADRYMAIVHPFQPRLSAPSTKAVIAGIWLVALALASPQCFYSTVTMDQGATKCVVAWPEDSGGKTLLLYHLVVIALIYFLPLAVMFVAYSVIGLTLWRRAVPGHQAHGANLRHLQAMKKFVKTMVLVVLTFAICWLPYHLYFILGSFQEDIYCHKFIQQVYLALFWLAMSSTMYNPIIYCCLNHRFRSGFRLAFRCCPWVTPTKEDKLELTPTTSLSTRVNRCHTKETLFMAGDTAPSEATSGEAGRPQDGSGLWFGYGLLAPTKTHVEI

Androgen receptor [6] = target: T1, Androgen receptor; type: functional; remark: listed apart in the source
[7] = target: T5, Nuclear receptor subfamily 1 group I member 3 (Homo sapiens, UniProt Q14994); type: functional
T5 sequence (Q14994 whole entry): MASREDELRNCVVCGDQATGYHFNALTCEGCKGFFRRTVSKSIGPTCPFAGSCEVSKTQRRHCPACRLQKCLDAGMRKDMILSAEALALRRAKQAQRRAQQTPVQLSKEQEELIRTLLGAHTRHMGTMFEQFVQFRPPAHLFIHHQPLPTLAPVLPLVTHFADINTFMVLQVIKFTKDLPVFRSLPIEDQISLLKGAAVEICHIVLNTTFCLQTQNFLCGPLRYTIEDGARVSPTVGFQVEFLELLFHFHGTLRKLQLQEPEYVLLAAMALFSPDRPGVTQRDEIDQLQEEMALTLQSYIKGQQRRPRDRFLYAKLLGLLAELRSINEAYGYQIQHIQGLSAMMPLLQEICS
Note: assay procedure not described here.

Cannabinoid receptor 1, sequence (P21554 whole entry): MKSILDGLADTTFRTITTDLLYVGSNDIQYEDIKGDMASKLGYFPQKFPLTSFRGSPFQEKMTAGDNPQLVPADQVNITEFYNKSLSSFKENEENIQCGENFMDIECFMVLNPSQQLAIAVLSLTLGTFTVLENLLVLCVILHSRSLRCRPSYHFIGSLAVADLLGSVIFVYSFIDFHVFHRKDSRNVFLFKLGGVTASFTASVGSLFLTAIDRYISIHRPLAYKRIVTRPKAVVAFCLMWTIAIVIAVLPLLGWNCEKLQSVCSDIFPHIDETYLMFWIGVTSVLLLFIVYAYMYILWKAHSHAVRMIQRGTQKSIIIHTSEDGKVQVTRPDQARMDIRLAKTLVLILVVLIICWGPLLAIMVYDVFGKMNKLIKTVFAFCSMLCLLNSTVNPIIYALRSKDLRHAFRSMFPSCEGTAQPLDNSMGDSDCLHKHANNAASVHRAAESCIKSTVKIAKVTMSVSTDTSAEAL
5-hydroxytryptamine receptor 7, sequence (P34969 whole entry): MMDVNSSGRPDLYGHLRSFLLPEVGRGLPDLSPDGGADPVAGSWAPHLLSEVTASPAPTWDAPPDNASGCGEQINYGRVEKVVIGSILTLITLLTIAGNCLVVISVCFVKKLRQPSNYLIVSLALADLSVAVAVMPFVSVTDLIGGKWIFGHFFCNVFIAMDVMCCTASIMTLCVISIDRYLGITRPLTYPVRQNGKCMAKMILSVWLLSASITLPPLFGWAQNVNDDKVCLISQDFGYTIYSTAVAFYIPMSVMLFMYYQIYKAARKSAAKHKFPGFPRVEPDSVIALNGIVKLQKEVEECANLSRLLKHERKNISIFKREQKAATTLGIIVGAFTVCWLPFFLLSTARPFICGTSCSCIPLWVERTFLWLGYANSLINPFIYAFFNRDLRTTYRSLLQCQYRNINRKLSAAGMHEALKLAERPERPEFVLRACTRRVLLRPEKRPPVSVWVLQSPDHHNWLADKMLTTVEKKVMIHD

| AC50 (Androgen receptor [1]) [µM] | AC50 (Androgen receptor [2]) [µM] | AC50 [4] [µM] | AC50 (Cannabinoid receptor 1) [µM] | Compound | AC50 [5] [µM] | further results |
| --- | --- | --- | --- | --- | --- | --- |
| > 30 | > 30 | > 10 | > 10 | CCOc1nc2cccc(C(=O)O)c2n1Cc1ccc(-c2ccccc2-c2nnn[nH]2)cc1 | > 10 | AC50 [3]: > 10 µM; AC50 (Substance-K receptor): > 10 µM |
| > 30 |  |  |  | CC(C(=O)O)c1ccc2oc(-c3ccc(Cl)cc3)nc2c1 (stereo unspecified) [BENOXAPROFEN] |  | AC50 (Androgen receptor [6]): > 30 µM |
|  |  | > 10 | > 10 | Cc1nc(Nc2ncc(C(=O)Nc3c(C)cccc3Cl)s2)cc(N2CCN(CCO)CC2)n1 [DASATINIB] |  | AC50 [3]: > 10 µM; AC50 (Substance-K receptor): > 10 µM |
|  |  | > 10 | > 10 | CN(CCOc1ccc(CC2SC(=O)NC2=O)cc1)c1ccccn1 (stereo unspecified) [ROSIGLITAZONE] | > 10 | AC50 [7]: 18 µM |

More lines, now with the values behind:

| Compound | AC50 (Androgen receptor [1]) [µM] | AC50 (Androgen receptor [2]) [µM] | AC50 [4] [µM] | AC50 (Cannabinoid receptor 1) [µM] | AC50 [5] [µM] | further results |
| --- | --- | --- | --- | --- | --- | --- |
| CCCc1nc2c(C)cc(-c3nc4ccccc4n3C)cc2n1Cc1ccc(-c2ccccc2C(=O)O)cc1 |  |  | > 10 | > 10 | > 10 |  |
| CCOc1cc([C@@H](CS(C)(=O)=O)N2C(=O)c3cccc(NC(C)=O)c3C2=O)ccc1OC | > 30 |  |  |  |  |  |
| CC=CC1=C(C(=O)O)N2C(=O)[C@@H](NC(=O)[C@H](N)c3ccc(O)cc3)[C@H]2SC1 [CEFPROZIL] |  | > 30 |  |  |  |  |
| CCC(=O)O[C@]1(C(=O)CCl)[C@@H](C)C[C@H]2[C@@H]3CCC4=CC(=O)C=C[C@]4(C)[C@@]3(F)[C@@H](O)C[C@@]21C [CLOBETASOL PROPIONATE] | > 30 |  |  |  |  | AC50 (Androgen receptor [6]): 27 µM |
| O=C(O)Cc1ccccc1Nc1c(Cl)cccc1Cl [DICLOFENAC] |  | > 30 | > 10 | > 10 | > 10 | AC50 [3]: > 10 µM; AC50 [7]: 23 µM; AC50 (Substance-K receptor): > 10 µM |
| Cc1ccc(C)c(OCCCC(C)(C)C(=O)O)c1 [GEMFIBROZIL] |  | > 30 |  |  |  |  |
| COc1ccccc1OC1(C)OC(=O)c2ccccc2O1 (stereo unspecified) [GUAIMESAL] | > 30 |  |  |  |  | AC50 (Androgen receptor [6]): > 30 µM |
| CNC(=C[N+](=O)[O-])NCCSCc1csc(CN(C)C)n1 [NIZATIDINE] |  | > 10 |  |  |  |  |
| COc1cc(C(=O)NS(=O)(=O)c2ccccc2C)ccc1Cc1cn(C)c2ccc(NC(=O)OC3CCCC3)cc12 [ZAFIRLUKAST] |  |  |  |  |  | AC50 [7]: 4 µM |
